Here are results for 17 molecules from ChEMBL document CHEMBL3352791, “Thioaryl naphthylmethanone oxime ether analogs as novel anticancer agents” (J Med Chem, 2014).

By EC50 is commonly meant the concentration that produces a half-maximal response. Read a low EC50 as greater potency. As a reminder, the IC50 is the concentration needed to halve the response being measured. A higher IC50 goes with weaker potency in that assay.

One series relates to Ishikawa. Briefly: Antiproliferative activity against human ER-positive Ishikawa cells after 24 hrs by MTT assay. It is filed as functional, cell-based.
Another series concerns HeLa. Briefly: Antiproliferative activity against human HeLa cells after 24 hrs by MTT assay. It is filed as functional, cell-based. For orientation: Tetrazolium dyes change colour on reduction, which living cells bring about.
Series [1] deals with MCF7. Description: Antiproliferative activity against human ER-negative MCF7 cells after 24 hrs by MTT assay. The format is functional, cell-based.
Series [2] can be described thus: Antiproliferative activity against human prostate, androgen receptor positive DU145 cells after 24 hrs by MTT assay. The format is functional, cell-based, DU-145.
Series [3] concerns MDA-MB-231. Description: Antiproliferative activity against human ER-positive MDA-MB-231 cells after 24 hrs by MTT assay. The format is functional, cell-based.
Series [4] in a line: Safety index, ratio of IC50 for human MCF10A cells to EC50 for human ER-positive MDA-MB-231 cells. The conditions noted are these: MCF10A cells versus.
The nature of series [5]: Cytotoxicity against human MCF10A cells after 72 hrs by MTT assay. It is filed as ADME, cell-based. The conditions noted are these: MCF-10A.
A short description of another series: in vitro. The conditions noted are these: human, MCF10A cells versus.
Series [6] has as its system MCF7. Description: Antiproliferative activity against human ER-negative MCF7 cells after 72 hrs by MTT assay. It is filed as functional, cell-based. The conditions noted are these: MCF7, 72 h.
Series [7] relates to MDA-MB-231. Briefly: Antiproliferative activity against human ER-positive MDA-MB-231 cells after 72 hrs by MTT assay. It is filed as functional, cell-based. Particulars: MDA-MB-231, 72 h.

Turning to `CSc1ccc(/C(=N\OCCCCNCCc2ccccc2)c2cccc3ccccc23)cc1`, the EC50 in the series with Ishikawa (Homo sapiens, Ishikawa, 24 h) is more than 50 µM; with HeLa (Homo sapiens, HeLa, 24 h), more than 50 µM; with MCF7 [1] (Homo sapiens, MCF7, 24 h) it was 18 µM; in series [2] (Homo sapiens, DU-145, 24 h), more than 50 µM; in the series with MDA-MB-231 [3] (Homo sapiens, MDA-MB-231, 24 h) it was 20 µM.

As for `CCCCN(C)CCCO/N=C(\c1ccc(SC)cc1)c1cccc2ccccc12`, the EC50 in the series on Ishikawa (Homo sapiens, Ishikawa, 24 h) is more than 50 µM; in the series on HeLa (Homo sapiens, HeLa, 24 h) it was 8 µM; in the series with MCF7 [1] (Homo sapiens, MCF7, 24 h), more than 50 µM; in series [2] (Homo sapiens, DU-145, 24 h) it was more than 50 µM; with MDA-MB-231 [3] (Homo sapiens, MDA-MB-231, 24 h), more than 50 µM.

Regarding `COc1ccc(/C(=N\OCCN2CCCCCC2)c2cccc3ccccc23)cc1`, the EC50 was more than 50 µM in the series on Ishikawa (Homo sapiens, Ishikawa, 24 h); 20.5 µM with HeLa (Homo sapiens, HeLa, 24 h); 25 µM in the series on MCF7 [1] (Homo sapiens, MCF7, 24 h); 35 µM in [2] (Homo sapiens, DU-145, 24 h); 30 µM in the series with MDA-MB-231 [3] (Homo sapiens, MDA-MB-231, 24 h).

On to `CSc1ccc(/C(=N\OCCN(C(C)C)C(C)C)c2cccc3ccccc23)cc1`, for which the EC50 in the series with Ishikawa (Homo sapiens, Ishikawa, 24 h) was more than 50 µM; in the series on HeLa (Homo sapiens, HeLa, 24 h), more than 50 µM; in the series on MCF7 [1] (Homo sapiens, MCF7, 24 h), more than 50 µM; in series [2] (Homo sapiens, DU-145, 24 h), more than 50 µM; with MDA-MB-231 [3] (Homo sapiens, MDA-MB-231, 24 h) it was more than 50 µM.

On to `COc1ccc(/C(=N\OCCN2CCCC2)c2cccc3ccccc23)cc1`, for which the EC50 was more than 50 µM in the series on Ishikawa (Homo sapiens, Ishikawa, 24 h); 20 µM in the series with HeLa (Homo sapiens, HeLa, 24 h); 25 µM in the series with MCF7 [1] (Homo sapiens, MCF7, 24 h); more than 50 µM in series [2] (Homo sapiens, DU-145, 24 h); more than 50 µM with MDA-MB-231 [3] (Homo sapiens, MDA-MB-231, 24 h).

As for `CCOC(=O)CO/N=C(\c1ccc(SC)cc1)c1cccc2ccccc12`, the EC50 is more than 50 µM in the series on Ishikawa (Homo sapiens, Ishikawa, 24 h); 18 µM in the series with HeLa (Homo sapiens, HeLa, 24 h); 30 µM in the series on MCF7 [1] (Homo sapiens, MCF7, 24 h); more than 50 µM in series [2] (Homo sapiens, DU-145, 24 h); 35 µM in the series with MDA-MB-231 [3] (Homo sapiens, MDA-MB-231, 24 h).

As to `CCN(CC)CCO/N=C(\c1ccc(SC)cc1)c1cccc2ccccc12`, the EC50 turned out to be 25 µM in the series with Ishikawa (ishikawa); 20 µM in the series with HeLa (hela); 13.5 µM with MCF7 [1] (mcf7); 25 µM in [2] (du-145); 8.8 µM in the series on MDA-MB-231 [3] (mda-mb-231).

`COc1ccc(/C(=N\OCCN(C)C)c2cccc3ccccc23)cc1`: the EC50 in the series on Ishikawa (Homo sapiens, Ishikawa, 24 h) is more than 50 µM; in the series on HeLa (Homo sapiens, HeLa, 24 h), 23 µM; with MCF7 [1] (Homo sapiens, MCF7, 24 h) it was 15 µM; in series [2] (Homo sapiens, DU-145, 24 h) it was more than 50 µM; in the series on MDA-MB-231 [3] (Homo sapiens, MDA-MB-231, 24 h) it was more than 50 µM.

For the molecule `CSc1ccc(/C(=N\OCCN2CCCCCC2)c2cccc3ccccc23)cc1`, the EC50 in the series with Ishikawa (Homo sapiens, Ishikawa, 24 h) was more than 50 µM; in the series on HeLa (Homo sapiens, HeLa, 24 h) it was more than 50 µM; with MCF7 [1] (Homo sapiens, MCF7, 24 h) it was more than 50 µM; in [2] (Homo sapiens, DU-145, 24 h), more than 50 µM; in the series on MDA-MB-231 [3] (Homo sapiens, MDA-MB-231, 24 h), more than 50 µM.

`CSc1ccc(/C(=N\OC(C)CN(C)C)c2cccc3ccccc23)cc1` (centres undefined): the half-maximal effective concentration (EC50) with Ishikawa (Homo sapiens, Ishikawa, 24 h) is more than 50 µM; in the series with HeLa (Homo sapiens, HeLa, 24 h), more than 50 µM; in the series on MCF7 [1] (Homo sapiens, MCF7, 24 h), more than 50 µM; in series [2] (Homo sapiens, DU-145, 24 h) it was more than 50 µM; with MDA-MB-231 [3] (Homo sapiens, MDA-MB-231, 24 h) it was more than 50 µM.

Consider `COc1ccc(/C(=N\OC(C)CN(C)C)c2cccc3ccccc23)cc1` (centres undefined), for which the EC50 with Ishikawa (Homo sapiens, Ishikawa, 24 h) is more than 50 µM; in the series with HeLa (Homo sapiens, HeLa, 24 h), more than 50 µM; with MCF7 [1] (Homo sapiens, MCF7, 24 h) it was more than 50 µM; in series [2] (Homo sapiens, DU-145, 24 h), more than 50 µM; in the series with MDA-MB-231 [3] (Homo sapiens, MDA-MB-231, 24 h), more than 50 µM.

Consider `CCN(CC)CCO/N=C(\c1ccc(OC)cc1)c1cccc2ccccc12`, for which the EC50 was more than 50 µM in the series on Ishikawa (Homo sapiens, Ishikawa, 24 h); more than 50 µM in the series with HeLa (Homo sapiens, HeLa, 24 h); 20 µM with MCF7 [1] (Homo sapiens, MCF7, 24 h); more than 50 µM in series [2] (Homo sapiens, DU-145, 24 h); more than 50 µM with MDA-MB-231 [3] (Homo sapiens, MDA-MB-231, 24 h).

For the molecule `O=C(c1ccc(OCCN2CCCCC2)cc1)c1c(-c2ccc(O)cc2)sc2cc(O)ccc12` [RALOXIFENE], the EC50 was 20 µM with Ishikawa (Homo sapiens, Ishikawa, 24 h); 23 µM with MCF7 [1] (Homo sapiens, MCF7, 24 h); more than 50 µM in [2] (Homo sapiens, DU-145, 24 h); 30 µM in the series on MDA-MB-231 [3] (Homo sapiens, MDA-MB-231, 24 h).

On to `COc1ccc(/C(=N\OCCN(C(C)C)C(C)C)c2cccc3ccccc23)cc1`, for which the EC50 in the series with Ishikawa (Homo sapiens, Ishikawa, 24 h) is more than 50 µM; with HeLa (Homo sapiens, HeLa, 24 h) it was more than 50 µM; with MCF7 [1] (Homo sapiens, MCF7, 24 h), 23 µM; in series [2] (Homo sapiens, DU-145, 24 h) it was more than 50 µM; in the series on MDA-MB-231 [3] (Homo sapiens, MDA-MB-231, 24 h), more than 50 µM.

Regarding `CSc1ccc(/C(=N\OCCN2CCOCC2)c2cccc3ccccc23)cc1`, the EC50 in the series with Ishikawa (Homo sapiens, Ishikawa, 24 h) was more than 50 µM; with HeLa (Homo sapiens, HeLa, 24 h) it was more than 50 µM; in the series with MCF7 [1] (Homo sapiens, MCF7, 24 h), more than 50 µM; in series [2] (Homo sapiens, DU-145, 24 h) it was more than 50 µM; in the series on MDA-MB-231 [3] (Homo sapiens, MDA-MB-231, 24 h), more than 50 µM.

As to `CSc1ccc(/C(=N\O)c2cccc3ccccc23)cc1`, the EC50 with Ishikawa (Homo sapiens, Ishikawa, 24 h) is more than 50 µM; with HeLa (Homo sapiens, HeLa, 24 h), 18 µM; in the series on MCF7 [1] (Homo sapiens, MCF7, 24 h) it was 18 µM; in series [2] (Homo sapiens, DU-145, 24 h) it was more than 50 µM; with MDA-MB-231 [3] (Homo sapiens, MDA-MB-231, 24 h) it was 20 µM.

For `CSc1ccc(/C(=N\OCCCN(C)C)c2cccc3ccccc23)cc1`, the EC50 with Ishikawa (Homo sapiens, Ishikawa, 24 h) is 7 µM; in the series with HeLa (Homo sapiens, HeLa, 24 h), 8 µM; in the series with MCF7 [1] (Homo sapiens, MCF7, 24 h), 8 µM; in series [2] (Homo sapiens, DU-145, 24 h), 9.5 µM; in the series with MDA-MB-231 [3] (Homo sapiens, MDA-MB-231, 24 h) it was 7.2 µM; with MCF7 [6], 1 µM. In the series on MDA-MB-231 [7], this molecule gave an EC50 of 5.6 µM. In addition, the selectivity ratio in series [4] came to 5.3; in “in vitro” it was 30. In [5], this molecule gave an IC50 of 30 µM.
